In patent US8163906B2, “Dihydroquinone and dihydronaphthridine inhibitors of JNK” (Roche Palo Alto, LLC, priority 2007, dated 2012) one finds IC50 and melting point data, which are given here for 19 compounds.

One data set has as its target Human JNK1α1 (Homo sapiens, UniProt P45983). The data set is described as follows: JNK assay in vitro, phosphorylation of GST-ATF2 with [γ-33P] ATP (JNK1). In kind it is biochemical. Conditions: 1 μM ATF2, 30° C. 30 min. How it is done: (§1) JNK activity was measured by phosphorylation of GST-ATF2 (19-96) with [γ-^33P] ATP. […] Human JNK2α2 assay contains 1 nM enzyme, 1 μM ATF2, 8 μM ATP with 1 uCi [γ-^33P] ATP. Human JNK1α1 assay contains 2 nM enzyme, 1 μM ATF2, 6 μM ATP with 1 μCi [γ-^33P] ATP. […] ATP. The enzyme assay was carried out in the presence or absence of several compound concentrations. JNK and compound were pre-incubated for 10 min., followed by initiation of the enzymatic reaction by adding ATP and the substrate. The reaction mixture was incubated at 30° C. for 30 min. […] The incorporation of ^33P into ATF2 was quantified on a microplate scintillation counter (Packard Topcount). Compound inhibition potency on JNK was measured by IC50 value generated from ten concentration inhibition curves fitted into the 3-parameter model: % inhibition=Maximum/(1+(IC50/[Inhibitor])^slope). Data were analyzed on Microsoft Excel for parameter estimation.

Another data set has as its target Human JNK2α2 (Homo sapiens, UniProt P45984). The data set is described as follows: JNK assay in vitro, phosphorylation of GST-ATF2 with [γ-33P] ATP (JNK2). In kind it is biochemical. The following applies: ATP at Km (8 μM), 1 μM ATF2, 30° C. 30 min. How it is done: as §1
Where [1] appears, read: ATP at Km (6 μM), read-out: IC50 vs. JNK1.
Where [2] appears, read: IC50 vs. JNK1, ATP at Km (6 μM).

Molecules are shown by their SMILES. Where two headings read alike, the source gives them in different places.

Chain of Human JNK1α1 (P45983 1-384 isoform P45983-2): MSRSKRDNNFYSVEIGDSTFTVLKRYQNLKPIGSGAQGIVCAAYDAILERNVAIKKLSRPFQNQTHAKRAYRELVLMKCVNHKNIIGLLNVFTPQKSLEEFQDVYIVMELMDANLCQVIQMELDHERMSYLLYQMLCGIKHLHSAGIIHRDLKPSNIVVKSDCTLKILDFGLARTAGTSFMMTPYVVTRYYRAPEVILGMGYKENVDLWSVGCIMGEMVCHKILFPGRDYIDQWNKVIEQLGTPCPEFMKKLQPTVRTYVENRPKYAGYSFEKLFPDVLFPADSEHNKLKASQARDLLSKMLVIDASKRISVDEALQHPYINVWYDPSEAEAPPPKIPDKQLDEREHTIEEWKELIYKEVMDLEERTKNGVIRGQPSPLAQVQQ
Chain of Human JNK2α2 (P45984 whole entry): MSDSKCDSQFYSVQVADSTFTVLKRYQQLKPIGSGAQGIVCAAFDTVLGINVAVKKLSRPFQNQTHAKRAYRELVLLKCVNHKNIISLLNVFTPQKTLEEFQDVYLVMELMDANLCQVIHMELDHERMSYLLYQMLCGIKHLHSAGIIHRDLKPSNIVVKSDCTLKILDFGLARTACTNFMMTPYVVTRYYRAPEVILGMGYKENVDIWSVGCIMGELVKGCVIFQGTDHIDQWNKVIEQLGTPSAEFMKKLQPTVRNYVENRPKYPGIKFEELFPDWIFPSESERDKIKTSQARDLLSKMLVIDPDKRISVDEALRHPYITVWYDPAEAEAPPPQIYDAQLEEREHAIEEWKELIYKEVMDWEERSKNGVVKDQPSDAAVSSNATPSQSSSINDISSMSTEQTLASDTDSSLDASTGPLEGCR

By IC50 is commonly meant the concentration that inhibits the measured activity by half. For `CNS(=O)(=O)c1ccc(Cc2c(C(=O)OC)n(-c3ccccc3)c3cc(Cl)ccc3c2=O)cc1` [Compound 44, 7-Chloro-3-(4-methylsulfamoyl-benzyl)-4-oxo-1-phenyl-1,4-dihydroquinoline-2-carboxylic acid methyl ester], the half-inhibitory concentration (IC50) at Human JNK1α1 (setting [1]) was 49.1 nM.
By melting point is commonly meant the temperature, or range, at which the solid turns liquid. `COC(=O)c1c(Cc2ccc(S(=O)(=O)N3CCNCC3)cc2)c(=O)c2ccc(Cl)cc2n1-c1ccccc1.O=C(O)C(F)(F)F` [Compound 66, 7-chloro-4-oxo-1-phenyl-3-[4-(piperazine-1-sulfonyl)-benzyl]-1,4-dihydro-quinoline-2-carboxylic acid methyl ester trifluoroacetate] came in with a melting point of 203 to 205 °C. On Human JNK2α2, this compound displayed an IC50 of 44.5 nM. The same compound had an IC50 at Human JNK1α1 (setting [2]) of 18.1 nM.
In turn, `COC(=O)c1c(Cc2ccc(S(=O)(=O)C(C)CO)cc2)c(=O)c2ccc(Cl)cc2n1-c1ccccc1` (stereo not shown) [Compound 117] showed a melting point of 175.3 to 180.3 °C. Moreover, on Human JNK2α2, the IC50 is 86.7 nM. In addition, the IC50 on Human JNK1α1 (setting [1]) was 32 nM.
On to `COC(=O)c1c(Cc2ccc(S(=O)(=O)N3CCOCC3)cc2)c(=O)c2ccc(Cl)cc2n1-c1ccccc1` [Compound 31, 7-Chloro-3-[4-(morpholine-4-sulfonyl)-benzyl]-4-oxo-1-phenyl-1,4-dihydroquinoline-2-carboxylic acid methyl ester], for which the IC50 stood at 161 nM against Human JNK2α2 and 52.9 nM at Human JNK1α1 (setting [1]).
For the compound `COC(=O)c1c(Cc2ccc(S(=O)(=O)N3CCN(C(=O)OC(C)(C)C)CC3)cc2)c(=O)c2ccc(Cl)cc2n1-c1ccccc1` [Compound 63, 3-[4-(4-tert-Butoxycarbonyl-piperazine-1-sulfonyl)-benzyl]-7-chloro-4-oxo-1-phenyl-1,4-dihydroquinoline-2-carboxylic acid methyl ester], the IC50 on Human JNK2α2 was found to be 212 nM; at Human JNK1α1 (setting [1]), 98.7 nM.
The compound `COC(=O)c1c(CN2CCC(N3CCOCC3)CC2)c(=O)c2ccc(F)cc2n1-c1ccccc1` [Compound 135] registered a melting point of 161 to 163 °C. For the same compound, the midpoint of inhibition against Human JNK2α2, the IC50, lay at 2100 nM. The IC50 on Human JNK1α1 (setting [1]) was 250 nM.
The corresponding values for `CC(=O)c1c(Cc2ccc(S(=O)(=O)N3CCC(O)CC3)cc2)c(=O)c2ccc(Cl)cc2n1-c1ccccc1` [Compound 70, 2-Acetyl-7-chloro-3-[4-(4-hydroxypiperidine-1-sulfonyl)-benzyl]-1-phenyl-1H-quinolin-4-one] are 145.5 to 147.2 °C, 399 nM and 134 nM.
In the case of `COC(=O)c1c(Cc2cnn(C)c2)c(=O)c2ccc(C(F)(F)F)nc2n1-c1ccccc1` [Compound 129, 3-(1-methyl-1H-pyrazol-4-ylmethyl)-1-4-oxo-phenyl-7-trifluoromethyl-1H-[1,8]naphthyridine-2-carboxylic acid methyl ester], the IC50 against Human JNK2α2 was found to be 562 nM; on Human JNK1α1 (setting [1]) it was 252 nM.
In the case of `COC(=O)c1c(Cc2ccc(S(=O)(=O)N3CCNCC3)cc2)c(=O)c2ccc(Cl)cc2n1-c1ccccc1.Cl` [Compound 67, 7-Chloro-4-oxo-1-phenyl-3-[4-(piperazine-1-sulfonyl)-benzyl]-1,4-dihydroquinoline-2-carboxylic acid methyl ester bishydrochloride], the melting point lay in the range of 214 to 215.5 °C. The compound also showed an IC50 against Human JNK2α2 of 48.5 nM. At Human JNK1α1 (setting [2]), this compound gave an IC50 of 30.4 nM.
As for `COC(=O)C(=O)NS(=O)(=O)c1ccc(Cc2c(C(=O)OC)n(-c3ccccc3)c3cc(Cl)ccc3c2=O)cc1` [Compound 64, 7-Chloro-3-[4-(methoxyoxalyl-sulfamoyl)-benzyl]-4-oxo-1-phenyl-1,4-dihydroquinoline-2-carboxylic acid methyl ester], the IC50 on Human JNK2α2 worked out at 2060 nM; at Human JNK1α1 (setting [1]), 603 nM.
Regarding `CC(=O)c1c(Cc2ccc(S(=O)(=O)N3CCN(C)CC3)cc2)c(=O)c2ccc(Cl)cc2n1-c1ccccc1` [Compound 72, 2-acetyl-7-chloro-3-[4-(4-methylpiperazine-1-sulfonyl)-benzyl]-1-phenyl-1H-quinolin-4-one], the melting point lay within 206.3 to 208 °C. At Human JNK2α2, this compound gave an IC50 of 336 nM. At Human JNK1α1 (setting [1]), the IC50 turned out to be 154 nM.
In the same order, the values of `COC(=O)c1c(Cc2ccc(S(=O)(=O)N(C)C)cc2)c(=O)c2ccc(Cl)cc2n1-c1ccccc1` [Compound 32, 7-Chloro-3-(4-dimethylsulfamoyl-benzyl)-4-oxo-1-phenyl-1,4-dihydroquinoline-2-carboxylic acid methyl ester] are 218.1 to 219.5 °C, 129 nM and 44.5 nM.
`COC(=O)c1c(Cc2ccc(S(=O)(=O)N3CC[C@H](O)C3)cc2)c(=O)c2ccc(Cl)cc2n1-c1ccccc1` [Compound 87, 7-Chloro-3-[4-(3-hydroxypyrrolidine-1-sulfonyl)-benzyl]-4-oxo-1-phenyl-1,4-dihydroquinoline-2-carboxylic acid methyl ester] registered a melting point of 135 to 136 °C. The compound further gave an IC50 against Human JNK2α2 of 83.2 nM. In addition, at Human JNK1α1 (setting [1]), the IC50 was 33.4 nM.
On to `COC(=O)c1c(Cc2ccc(S(=O)(=O)N3CCC(O)CC3)cc2)c(=O)c2ccc(Cl)cc2n1-c1ccccc1` [Compound 69, 7-Chloro-3-[4-(4-hydroxypiperidine-1-sulfonyl)-benzyl]-4-oxo-1-phenyl-1,4-dihydroquinoline-2-carboxylic acid methyl ester], for which the melting point was in the range of 170 to 171 °C. Inhibition on Human JNK2α2 was half-maximal at 47 nM (IC50). Further, the half-inhibitory concentration (IC50) on Human JNK1α1 (setting [1]) stood at 18.4 nM.
With `COC(=O)c1c(Cc2ccc(S(=O)(=O)N(C)CCO)cc2)c(=O)c2ccc(Cl)cc2n1-c1ccccc1` [Compound 59, 7-Chloro-3-{4-[(2-hydroxyethyl)-methyl-sulfamoyl]-benzyl}-4-oxo-1-phenyl-1,4-dihydroquinoline-2-carboxylic acid methyl ester], the figures for the IC50 against Human JNK2α2 and on Human JNK1α1 (setting [1]) were 61.4 nM and 22.6 nM, respectively.
The corresponding values for `COC(=O)c1c(Cc2ccc(S(=O)(=O)NCCO[Si](C)(C)C(C)(C)C)cc2)c(=O)c2ccc(Cl)cc2n1-c1ccccc1` [Compound 60, 3-{4-[2-(tert-Butyl-dimethyl-silanyloxy)-ethylsulfamoyl]-benzyl}-7-chloro-4-oxo-1-phenyl-1,4-dihydroquinoline-2-carboxylic acid methyl ester] are 4980 nM and 1630 nM.
On to `COC(=O)c1ccc(Cc2c(C(=O)OC)n(-c3ccccc3)c3nc(C)ccc3c2=O)cn1` [Compound 100, 3-(6-Methoxycarbonyl-pyridin-3-ylmethyl)-7-methyl-4-oxo-1-phenyl-1,4-dihydro[1,8]naphthyridine-2-carboxylic Acid Methyl Ester], for which the melting point is 177 to 178 °C. It took 226 nM to reach half-maximal inhibition on Human JNK2α2 (IC50).
Regarding `CC(=O)c1c(Cc2ccc(S(=O)(=O)NCC(C)(C)O)cc2)c(=O)c2ccc(Cl)cc2n1-c1ccccc1` [Compound 88, 3-[4-(2-hydroxy-2-methylpropylsulfonamoyl)benzyl]-4-oxo-7-chloro-1-phenyl-2-acetyl-1,4-dihydroquinoline], the IC50 at Human JNK2α2 stood at 840 nM; on Human JNK1α1 (setting [1]), 245 nM.
In the same order, the values of `COC(=O)c1c(Cc2ccc(S(=O)(=O)NCC(O)CO)cc2)c(=O)c2ccc(Cl)cc2n1-c1ccccc1` (stereo not shown) [Compound 46, 7-chloro-3-[4-(2,3-dihydroxy-propylsulfamoyl)-benzyl]-4-oxo-1-phenyl-1,4-dihydroquinoline-2-carboxylic acid methyl ester] are 137 nM and 45.4 nM.
